Results taken from US20230000936A1, “A[…] ITCHING […] C[…]” (Demetrix, Inc., priority 2021, published 2023).
“Also recorded” adds a separate entry of the source.

How the values were obtained:
Assay type in all cases: cell-based
CHRM2 [1] = target: T1, CHRM2 (Homo sapiens, UniProt P08172); experiment: GPCR reactivity screen, PathHunter β-Arrestin, agonist assay CHRM2; parameters: concentration or dose not given beside the values; conditions: agonist mode; control acetylcholine
T1 sequence (P08172 1-466): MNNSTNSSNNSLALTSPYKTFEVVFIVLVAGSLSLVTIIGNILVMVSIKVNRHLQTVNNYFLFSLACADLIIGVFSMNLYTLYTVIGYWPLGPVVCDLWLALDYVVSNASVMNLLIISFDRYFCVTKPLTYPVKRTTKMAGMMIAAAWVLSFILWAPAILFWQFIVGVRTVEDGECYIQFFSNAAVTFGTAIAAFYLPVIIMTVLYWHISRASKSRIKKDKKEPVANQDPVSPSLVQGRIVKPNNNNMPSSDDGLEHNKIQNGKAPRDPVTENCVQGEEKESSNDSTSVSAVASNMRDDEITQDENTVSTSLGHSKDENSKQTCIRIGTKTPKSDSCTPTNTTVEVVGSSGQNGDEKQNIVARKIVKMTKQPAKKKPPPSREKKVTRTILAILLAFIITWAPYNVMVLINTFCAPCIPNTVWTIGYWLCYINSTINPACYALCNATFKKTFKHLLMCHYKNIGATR
Method: (§1) To evaluate the role specific cannabinoid compounds play in the neurological signaling pathway for itching, a GPCR reactivity assay was performed to determine the reactivity of 19 cannabinoid compounds to each of CHRM2, EDG3, and MRGPRX2. The evaluated cannabinoid compounds were: CBN, THCV, CBDVA, CBG, CBL, CBC, CBDV, CBDA, CBD, CBGA, (+)-CBD, CBG-C4, CBD-C1, CBD-C2, CBGV, CBGA-C4, CBGVA, CBCA, and CBLA. Acetylcholine was used as the control for CHRM2, sphingosine-1-phosphate was used as the control for EDG3; and cortistatin 14 was used as the control for MRGPRX2.
(§2) A total of six assays were run. Specifically, agonist and antagonist assays were run for each of CHRM2, EDG3, and MRGPRX2. In each of the three agonist assays, PathHunter® cell lines were removed from a freezer stock and seeded at a volume of 20 μL into white walled, 384-well microplates and incubated at 37° C. Each cell was incubated with a sample to induce a response and then diluted to generate a 5× sample in assay buffer. 5 μL of the 5× sample was then added to cells and incubated at 37° C. for 90 or 180 minutes. The final assay concentration was 1%. The assay signal was generated through addition of 12.5 μL or 15 μL (50% V/V) of a detection reagent cocktail followed by a one hour incubation time at room temperature. Microplates were read following signal generation with a PerkinElmer Envision™ (PerkinElmer Inc., Waltham, Mass.) for chemiluminescent signal detection. Reactivity was analyzed using the CBIS data analysis suite (ChemInnovation, CA) where RLU refers to the raw measured values. The percent activity was then calculated using the formula: % Activity=100%*(mean RLU of test sample−mean RLU of control)/(mean max control ligand−mean RLU of vehicle control).
(§3) As used herein, strong activity against a receptor is considered a percent activity of about 42% or higher. Higher results for antagonism against CHRM2, EDGE, and MRGPRX2 are considered better. It is further considered better when a cannabinoid inhibits more than one of the receptors.

CHRM2 [2] = target: T1, CHRM2; experiment: GPCR reactivity screen, PathHunter β-Arrestin, antagonist assay CHRM2; conditions: for antagonist activity against CHRM2 (in words): GPCR reactivity screen; for CHRM2 (Antagonist) percent inhibition: antagonist mode, agonist challenge at EC80
Method: as §1
(§4) In each of the antagonist assays, PathHunter® cell lines were removed from a freezer stock and seeded at a volume of 20 μL into white walled, 384-well microplates and incubated at 37° C. Each cell was pre-incubated with an antagonist followed by an agonist challenge at the EC80 concentration. Cells were then diluted to generate a 5× sample in assay buffer. 5 μL of the 5× sample was then added to cells and incubated at 37° C. for 30 minutes. Finally, 5 μL of 6×EC80 agonist in assay buffer were added to the cells and incubated at 37° C. for 90 minutes or 180 minutes. The assay signal was generated through addition of 12.5 μL or 15 μL (50% V/V) of a detection reagent cocktail followed by a one hour incubation time at room temperature. Microplates were read following signal generation with a PerkinElmer Envision™ (PerkinElmer Inc., Waltham, Mass.) for chemiluminescent signal detection. Reactivity was analyzed using the CBIS data analysis suite (ChemInnovation, CA) where RLU refers to the raw measured values. The percent inhibition was calculated using the formula: % Inhibition=100%*(1−mean RLU of test sample−mean RLU of control)/(mean RLU of EC80 control−mean RLU of vehicle control).
as §3

EDG3 [3] = target: T2, EDG3 (Homo sapiens, UniProt Q99500); experiment: GPCR reactivity screen, PathHunter β-Arrestin, agonist assay EDG3; parameters: concentration or dose not given beside the values; conditions: agonist mode; control sphingosine-1-phosphate
T2 sequence (Q99500 whole entry): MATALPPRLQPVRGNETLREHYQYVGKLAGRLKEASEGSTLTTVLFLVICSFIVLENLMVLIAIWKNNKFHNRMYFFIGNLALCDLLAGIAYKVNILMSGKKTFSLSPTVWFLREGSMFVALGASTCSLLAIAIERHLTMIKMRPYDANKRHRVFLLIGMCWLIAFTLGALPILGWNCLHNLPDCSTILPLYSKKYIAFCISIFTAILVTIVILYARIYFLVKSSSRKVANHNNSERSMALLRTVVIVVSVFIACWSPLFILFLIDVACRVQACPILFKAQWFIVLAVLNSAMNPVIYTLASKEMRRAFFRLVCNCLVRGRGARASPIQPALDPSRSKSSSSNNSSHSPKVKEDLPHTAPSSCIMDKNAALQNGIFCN
Method: as §1, §2, §3

EDG3 [4] = target: T2, EDG3; experiment: GPCR reactivity screen, PathHunter β-Arrestin, antagonist assay EDG3; conditions: for antagonist activity against EDG3 (in words): GPCR reactivity screen; for EDG3 (Antagonist) percent inhibition: antagonist mode, agonist challenge at EC80
Method: as §1, §4, §3

MRGPRX2 [5] = target: T3, MRGPRX2 (Homo sapiens, UniProt Q96LB1); experiment: GPCR reactivity screen, PathHunter β-Arrestin, agonist assay MRGPRX2; conditions: agonist mode; control cortistatin 14
T3 sequence (Q96LB1 1-330): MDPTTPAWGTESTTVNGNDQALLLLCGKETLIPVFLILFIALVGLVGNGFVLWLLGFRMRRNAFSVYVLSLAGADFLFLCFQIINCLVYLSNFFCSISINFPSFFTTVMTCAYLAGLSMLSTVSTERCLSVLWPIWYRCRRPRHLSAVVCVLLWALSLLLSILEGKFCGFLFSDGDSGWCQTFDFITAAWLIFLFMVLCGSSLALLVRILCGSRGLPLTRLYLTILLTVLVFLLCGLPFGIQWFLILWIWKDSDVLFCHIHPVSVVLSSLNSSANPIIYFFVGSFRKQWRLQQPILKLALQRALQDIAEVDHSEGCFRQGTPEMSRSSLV
Method: as §1, §2, §3

MRGPRX2 [6] = target: T3, MRGPRX2; experiment: GPCR reactivity screen, PathHunter β-Arrestin, antagonist assay MRGPRX2; conditions: for antagonist activity against MRGPRX2 (in words): GPCR reactivity screen; for MRGPRX2 (Antagonist) percent inhibition: antagonist mode, agonist challenge at EC80
Method: as §1, §4, §3

CHRM2 [7] = target: T1, CHRM2; experiment: IC50 antagonist activity screen, PathHunter β-Arrestin, CHRM2; conditions: for maximum inhibition (antagonism) CHRM2: maximum of IC50 curve; for antagonism of CHRM2 (in words): IC50 data
Method: as §4
(§5) IC50 curves were measured using the same GPCR assay, PathHunter® β-Arrestin from Eurofins DiscoverX Products (Fremont, Calif.), as the GPCR reactivity screen. As used herein, strong activity against a receptor is considered a maximum activity of about 42% or higher. Higher results for antagonism against CHRM2, EDGE, and MRGPRX2 are considered better. It is further considered better when a cannabinoid inhibits more than one of the receptors.

EDG3 [8] = target: T2, EDG3; experiment: IC50 antagonist activity screen, PathHunter β-Arrestin, EDG3; conditions: for maximum inhibition (antagonism) EDG3: maximum of IC50 curve; for antagonism of EDG3 (in words): IC50 data
Method: as §4, §5

MRGPRX2 [9] = target: T3, MRGPRX2; experiment: IC50 antagonist activity screen, PathHunter β-Arrestin, MRGPRX2; conditions: for maximum inhibition (antagonism) MRGPRX2: maximum of IC50 curve; for antagonism of MRGPRX2 (in words): IC50 data
Method: as §4, §5

| Molecule | CHRM2 (Agonist) percent activity (CHRM2 [1]) [%] | antagonist activity against CHRM2 (in words) (CHRM2 [2]) | CHRM2 (Antagonist) percent inhibition (CHRM2 [2]) [%] | EDG3 (Agonist) percent activity (EDG3 [3]) [%] | antagonist activity against EDG3 (in words) (EDG3 [4]) | EDG3 (Antagonist) percent inhibition (EDG3 [4]) [%] | MRGPRX2 (Agonist) percent activity (MRGPRX2 [5]) [%] | antagonist activity against MRGPRX2 (in words) (MRGPRX2 [6]) | MRGPRX2 (Antagonist) percent inhibition (MRGPRX2 [6]) [%] | maximum inhibition (antagonism) CHRM2 (CHRM2 [7]) [%] | maximum inhibition (antagonism) EDG3 (EDG3 [8]) [%] | maximum inhibition (antagonism) MRGPRX2 (MRGPRX2 [9]) [%] | antagonism of CHRM2 (in words) (CHRM2 [7]) | antagonism of EDG3 (in words) (EDG3 [8]) | antagonism of MRGPRX2 (in words) (MRGPRX2 [9]) |
| --- | --- | --- | --- | --- | --- | --- | --- | --- | --- | --- | --- | --- | --- | --- | --- |
| CCCCCc1cc(O)c2c(c1)OC(C)(CCC=C(C)C)C=C2 (centres unmarked) [CBC, cannabichromene] | 12 | strong to moderate antagonist activity | 89 | −1 | strong to moderate antagonist activity | 48 | 9 | strong to moderate antagonist activity | 89 | 85 | 43 | 91 |  |  |  |
| CCCCCc1cc2c(c(O)c1C(=O)O)C=CC(C)(CCC=C(C)C)O2 (centres unmarked) [CBCA, cannabichromenic acid] | −1 | do not exhibit an antagonistic effect | 7 | 1 | do not exhibit an antagonistic effect | 32 | 4 | do not exhibit an antagonistic effect; also recorded: antagonist activity | 49 |  | 25 | 35 |  |  |  |
| C=C(C)[C@@H]1CCC(C)=C[C@H]1c1c(O)cc(CCCCC)cc1O [CBD, cannabidol] | 12 | antagonist activity | 81 | 2 |  | 35 | 11 | antagonist activity | 85 | 75 | 30 | 96 |  |  |  |
| CCCCCc1cc(O)c(C/C=C(\C)CCC=C(C)C)c(O)c1 [CBG, cannabigerol] | 0 |  | 20 | 8 |  | 42 | 2 | antagonist activity | 96 | 13 | 36 | 92 |  |  |  |
| CCCCCCc1cc(O)c(C/C=C(\C)CCC=C(C)C)c(O)c1C(=O)O [CBGA-C6, cannabigerolic acid hexyl] |  |  |  |  |  |  |  |  |  | 6 | 33 | 13 | do not exhibit an antagonistic effect | do not exhibit an antagonistic effect | do not exhibit an antagonistic effect |
| CCCCCCCc1cc(O)c(C/C=C(\C)CCC=C(C)C)c(O)c1C(=O)O [CBGA-C7, cannabigerolic acid heptyl] |  |  |  |  |  |  |  |  |  | 4 | 30 | 37 | do not exhibit an antagonistic effect | do not exhibit an antagonistic effect | do not exhibit an antagonistic effect |
| CCCCCCCCCc1cc(O)c(C/C=C(\C)CCC=C(C)C)c(O)c1C(=O)O [CBGA-C9, cannabigerolic acid nonyl] |  |  |  |  |  |  |  |  |  | 11 | 58 | 56 |  |  |  |
| (+)-cannabidiol [(+)-CBD] | 7 | strong to moderate antagonist activity | 67 | 21 | strong to moderate antagonist activity | 55 | 9 | strong to moderate antagonist activity | 92 | 62 | 24 | 94 |  |  |  |
